Experimental data: US12617770B2, “IRAK inhibitor and preparation method therefor and use thereof” (WUHAN CREATERNA SCIENCE AND TECHNOLOGY CO., LTD., priority 2019, dated 2026)

Assays:
[1] = Plasma protein binding (PPB), equilibrium dialysis, human plasma; format: in vitro ADME; details: 5 h at 37° C., read-out: Plasma protein binding (Bound %) Human (converted)
Experimental: (§1) The experiment is intended to determine plasma protein binding (PPB) data of the test compounds disclosed herein.
(§2) In the PPB experiment, the final administration matrix contained the test compound or a reference compound with a concentration of 1 μM and DMSO with a content of 0.2%.
(§3) Collecting samples in initial time: 25 μL of the matrix containing the compound was added into a blank 96-well collecting plate, and the plate was stored at −20° C.
(§4) An equilibrated dialysis device was prepared. 100 μL of buffer was added to the receiving side of the equilibrium dialysis plate. Then 100 μL of the administration matrix containing the compound or the reference compound was added into an administration side of the equilibrium dialysis plate. The prepared equilibrium dialysis plate was placed in a 37° C. shaker to be shaken for 5 h at 60 rpm.
(§5) Sample was prepared at the end of cultivation (5 h): Preparing sample in the receiving side: 25 μL of sample from a receiving side was taken out and placed in a 96-well sample collecting plate, and 25 μL of a corresponding matrix (blank plasma) was added for mixing: 200 μL of ACN containing an internal standard was added, shaken for 10 minutes at 600 rpm, and centrifuged at 5594 g for 15 min.
(§6) Preparing sample in the administration side: 25 μL of the sample containing test compound and reference compound from the administration side was taken out and 25 μL of a blank buffer was added for mixing; 200 μL of ACN containing an internal standard was added, shaken for 10 minutes at 600 rpm, and centrifuged at 5594 g for 15 min.
(§7) Preparing sample in initial time: the sample containing test compound and reference compound was re-melted at 37° C. in initial time and then mixed with the corresponding matrix (blank buffer) in the same volume (25 μL); 200 μL of ACN containing an internal standard was added, shaken for 10 minutes at 600 rpm, and centrifuged at 5594 g for 15 min.
(§8) After all the samples were centrifuged, 50 μL of a supernatant was taken and added into 50 μL of ultrapure water for mixing, and the samples were sent to liquid chromatography-mass spectrometry.

[2] = Plasma protein binding (PPB), equilibrium dialysis, mouse plasma; format: in vitro ADME; details: 5 h at 37° C., read-out: Plasma protein binding (Bound %) Mouse (converted)
Experimental: as §1, §2, §3, §4, §5, §6, §7, §8

[3] = Plasma protein binding (PPB), equilibrium dialysis, rat plasma; format: in vitro ADME; details: 5 h at 37° C., read-out: Plasma protein binding (Bound %) Rat (converted)
Experimental: as §1, §2, §3, §4, §5, §6, §7, §8

[4] = target: T1, CYP2D6 (Homo sapiens, UniProt P10635); experiment: CYP450 inhibition in human liver microsomes, CYP2D6; format: in vitro ADME; details: human, microsomes
T1 construct: co-incubated at 7 concentrations with human liver microsomes and five probe substrates; tissue Corning (USA); host or cells: mixed (pooled) human liver microsomes
T1 sequence (P10635 whole entry): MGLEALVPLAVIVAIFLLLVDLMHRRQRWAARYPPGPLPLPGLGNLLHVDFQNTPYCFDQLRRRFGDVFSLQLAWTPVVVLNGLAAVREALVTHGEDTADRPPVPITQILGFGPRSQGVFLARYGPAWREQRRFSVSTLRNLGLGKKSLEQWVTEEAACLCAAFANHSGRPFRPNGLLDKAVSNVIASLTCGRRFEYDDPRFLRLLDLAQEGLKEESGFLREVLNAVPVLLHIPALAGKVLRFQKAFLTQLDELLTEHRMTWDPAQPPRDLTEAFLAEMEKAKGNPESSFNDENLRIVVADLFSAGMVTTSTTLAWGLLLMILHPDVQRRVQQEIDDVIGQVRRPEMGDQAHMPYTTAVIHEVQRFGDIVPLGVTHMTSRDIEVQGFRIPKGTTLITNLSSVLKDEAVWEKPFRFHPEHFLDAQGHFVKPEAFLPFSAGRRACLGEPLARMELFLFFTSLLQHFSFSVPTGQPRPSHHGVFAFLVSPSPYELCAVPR
Experimental: (§9) This study was intended to investigate the inhibitory effect of the test compounds on 5 major enzymes in human P450 superfamily, CYP1A2, 2C9, 2C19, 2D6 and 3A4-M. The mixed human liver microsomes used in this assay were purchased from Corning (USA). The test compound (compound 14) was co-incubated at 7 concentrations with human liver microsomes and five probe substrates (phenacetin for CYP1a2, diclofenac for CYP2C9, mephenytoin for CYP2C19, dextromethorphan for CYP2D6, midazolam for CYP3A4-M, mixed). The reaction was initiated by adding coenzyme NADPH, and terminated by adding acetonitrile containing internal standard. After the proteins were precipitated, the supernatant was centrifuged. The characteristic metabolites in the supernatant (acetaminophen for CYP1A2, 4-hydroxydiclofenac for CYP2C9, 4-hydroxymephenytoin for CYP2C19, dextrorphan for CYP2D6, 1-hydroxymidazolam for CYP3A4-M) were analyzed by LC-MS/MS. The influence of the test compounds on production of the characteristic metabolites was finally analyzed on the basis of the data obtained. A selective inhibitor (ketoconazole for CYP3A4-M) may be used as positive control. All samples were tested in duplicate.

[5] = target: T2, CYP3A4 (Homo sapiens, UniProt P08684); experiment: CYP450 inhibition in human liver microsomes, CYP3A4-M; format: in vitro ADME; details: human, microsomes
T2 construct: The test compounds were co-incubated with the human liver microsomes and a probe substrate midazolam (CYP3A4); tissue Corning (USA); host or cells: mixed (pooled) human liver microsomes
T2 sequence (P08684 whole entry): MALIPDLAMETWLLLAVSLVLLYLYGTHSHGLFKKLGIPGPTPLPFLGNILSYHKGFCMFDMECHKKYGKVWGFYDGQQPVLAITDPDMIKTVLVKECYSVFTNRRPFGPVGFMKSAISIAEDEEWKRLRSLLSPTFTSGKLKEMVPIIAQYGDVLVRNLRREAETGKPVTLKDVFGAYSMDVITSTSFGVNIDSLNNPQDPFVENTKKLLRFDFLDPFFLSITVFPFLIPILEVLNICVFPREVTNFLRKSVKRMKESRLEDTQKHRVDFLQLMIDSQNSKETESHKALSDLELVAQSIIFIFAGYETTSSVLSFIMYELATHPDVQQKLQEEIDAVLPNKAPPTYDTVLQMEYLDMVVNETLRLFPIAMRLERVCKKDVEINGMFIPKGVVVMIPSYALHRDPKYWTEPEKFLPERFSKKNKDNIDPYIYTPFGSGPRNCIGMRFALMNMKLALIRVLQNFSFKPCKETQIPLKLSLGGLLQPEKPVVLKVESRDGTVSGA
Experimental: as §9

[6] = target: T3, human IRAK4 (Homo sapiens, UniProt Q9NWZ3); experiment: IRAK4 MSA (Mobility-Shift Assay) at Km concentration of ATP; format: biochemical; details: GST-IRAK4 1 nM, ATP 37 μM (Km); read-out: IC50 for inhibiting human IRAK4 activity
T3 construct: purchased Cama (so in the source)
T3 sequence (Q9NWZ3 1-460): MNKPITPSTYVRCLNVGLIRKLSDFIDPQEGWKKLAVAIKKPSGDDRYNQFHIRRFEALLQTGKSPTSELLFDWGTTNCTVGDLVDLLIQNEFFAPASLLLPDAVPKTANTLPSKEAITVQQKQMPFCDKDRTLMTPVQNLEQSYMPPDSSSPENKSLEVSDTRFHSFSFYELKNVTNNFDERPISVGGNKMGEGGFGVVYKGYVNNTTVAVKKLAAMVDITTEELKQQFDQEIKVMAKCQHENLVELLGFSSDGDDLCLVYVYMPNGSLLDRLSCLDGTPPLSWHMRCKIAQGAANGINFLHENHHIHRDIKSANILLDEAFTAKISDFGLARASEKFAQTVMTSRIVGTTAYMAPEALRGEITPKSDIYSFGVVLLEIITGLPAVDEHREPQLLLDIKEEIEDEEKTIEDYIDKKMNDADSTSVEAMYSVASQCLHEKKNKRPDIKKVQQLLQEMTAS
Experimental: A recombinant fusion protein of N-terminal GST (glutathione-S-transferase) and human IRAK4 was used as enzyme (GST-IRAK4, kinase IRAK4 (Cama, CAT No. 09-145)) at a final concentration of 1 nM; ATP (Sigma. CAT No. A7699-1G) was at a final concentration of 37 μM; • the substrates used for the kinase reaction were 5-FAM (5-carboxyfluorescein)-labeled polypeptide (5-FAM-[…]-COOH) and substrate peptide FAM-P8 (GL Biochem, CAT No. 112396) at final concentrations of 5 μM.
In this assay, 500 μM stock solutions of the compounds were prepared in 100% DMSO, and serially 4-fold diluted to the 10th concentration gradient with 100% DMSO, followed by a 10-fold dilution in the compound buffer (50 mM HEPES, pH 7.5, 0.00015% Brij-35) to give intermediate dilutions of the compounds at a final concentration of 10 μM−0.04 nM containing 10% DMSO. 5 μL of the intermediate dilution was transferred into a black 384-well plate.
IRAK4 was diluted to 2.5 nM in the kinase buffer (50 mM HEPES, pH 7.5, 0.00015% Brij-35, 2 mM DTT). 10 μL of the IRAK4 dilution was transferred to the 384-well plate and co-incubated with the compound for 10-15 min.
The substrate and ATP were diluted to 12.5 μM and 92.5 μM with reaction buffer (50 mM HEPES, pH 7.5, 0.00015% Brij-35, 10 mM MgCl2), respectively. 10 μL of the dilution was transferred to a 384-well plate and incubated at 28° C. for 1 h. The reaction was terminated by adding 25 μL of 50 mM EDTA to the 384-well plate.
The inhibition rate of IRAK4 by the compounds was calculated by measuring the rate of phosphorylated substrate using a Caliper EZ Reader (PerkinElmer) and the IC50 was calculated by XL-fit software. […] In particular, some exemplary compound activity values are as follows: […]

[7] = tested on: TNF-α release; experiment: Inhibition of cytokine TNF-α release in LPS-induced Balb/c female mice; format: in vivo; details: oral gavage 16 h before LPS (i.p. 0.2 mg/kg); serum 1.5 h after stimulation
Experimental: Female Balb/c mice were randomized into groups, each containing 4 mice, including a control+vehicle group, a model+vehicle group, a model+reference group and model+compound groups. The control animals received an intraperitoneal injection of normal saline (10 mL/kg) and the model animals received LPS stimulation (Sigma CAT #L2630, i.p., 10 mL/kg, 0.2 mg/kg). To the test compounds, DMSO, Solutol and 10 mM PBS were sequentially added to prepare a solution or suspension of required concentration for administration. For the vehicle, DMSO, Solutol and 10 mM PBS were mixed in a volume ratio of 5:15:80. The animals were administered through oral gavage (10 mL/kg) 16 h before LPS (or saline) stimulation at predetermined doses, and euthanized with CO2 at 1.5 h after the stimulation for cardiac blood collection. The whole blood was not anticoagulated, incubated in wet ice for 1.5 h, and centrifuged at 2000×g at 4° C. for 10 min to separate the serum. Serum was frozen at −80° C. for TNF-α assay. Quantification of TNF-α was done by TNF-α ELISA kit according to the manufacturer's instructions. The readings of absorbance at A450 were measured with a microplate reader SpectraMax i3x (Molecular Device) for calculating the inhibition of the compounds, and IC50 was calculated with GraphPad Prism 7.0 software. […] In particular, some exemplary compound inhibition rate values are as follows: […]

[8] = Pharmacokinetic study, single oral gavage dosing; format: in vivo; details: mouse, 40 mg/kg, 40 mpk, 15% solutol HS15 + 85% PBS, ICR mice, plasma
[9] = target: T2, CYP3A4; experiment: Time-dependent inhibition (TDI) of CYP3A4 in human liver microsomes; format: in vitro ADME; details: probe substrate midazolam
Experimental: This study was intended to investigate the time-dependent inhibition effect of the compounds on CYP3A4 in human P450 superfamily. The mixed human liver microsomes used in this assay were purchased from Corning (USA).
The test compounds were co-incubated with the human liver microsomes and a probe substrate midazolam (CYP3A4), and the concentration of the test compounds was set at 30 μM. The reaction was initiated by adding coenzyme NADPH, and terminated by adding acetonitrile dossolved with internal standard in advance. After the proteins were precipitated, the supernatant was centrifuged. The characteristic metabolite 1-hydroxy-midazolam (CYP3A4) in the supernatant was analyzed by LC-MS/MS. The influence of the test compounds on production of the characteristic metabolites was finally analyzed on the basis of the data obtained. A selective inhibitor (verapamil for CYP3A4-M) was used as positive control.

Row | fraction unbound at 5 h, 1 μM [1] | fraction unbound at 5 h, 1 μM [2] | fraction unbound at 5 h, 1 μM [3] | IC50 [4] | IC50 [5] | IC50 [6] | AUC(0-t) ([8]; read-out: Area under curve AUC0-t) | AUC(0-inf) ([8]; read-out: Area under curve AUC0-∞) | MRT ([8]; read-out: Average retention time MRT) | half-life ([8]; read-out: Half life t1/2 (converted)) | Cmax ([8]; read-out: Peak concentration Cmax) | Tmax ([8]; read-out: Time to peak tmax) | TDI (3A4, 30 μM) [9] | Compound | Inhibition rate (%) of TNF-α [7]
1 | 0.0098 | 0.148 | 0.13 | > 30000 nM | > 30000 nM | – | – | – | – | – | – | – | – | CC(C)(O)CCn1cc2cc(NC(=O)c3cccc(C(F)(F)F)n3)c(C(C)(C)O)cc2n1 [A, reference compound] | –
2 | 0.191 | 0.238 | 0.183 | – | – | 7.6 nM | 160 µg·h/mL | 182 µg·h/mL | 10.4 h | 7.23 h | 18.9 µg/mL | 1 h | – | COc1cc2nn([C@H]3CC[C@H](O)CC3)cc2cc1NC(=O)c1cccc(C)[n+]1[O-] [Compound 013, 2-((2-((1r,4r)-4-hydroxycyclohexyl)-6-methoxy-2H-indazol-5-yl)carbamoyl)-6-methylpyridine 1-oxide] | 76.29%
3 | – | – | – | – | – | – | – | – | – | – | – | – | +3.85% | COc1cc2nn([C@H]3CC[C@H](O)CC3)cc2cc1NC(=O)c1cccc(C2CC2)[n+]1[O-] [Compound 014, 2-cyclopropyl-6-((2-((1r,4r)-4-hydroxycyclohexyl)-6-methoxy-2H-indazol-5-yl)carbamoyl)pyridine 1-oxide] | –
4 | 0.131 | 0.123 | 0.099 | – | – | 8.1 nM | – | – | – | – | – | – | – | CCOc1cc2nn([C@H]3CC[C@H](O)CC3)cc2cc1NC(=O)c1cccc(C)[n+]1[O-] [Compound 016, 2-((6-ethoxy-2-((1r,4r)-4-hydroxycyclohexyl)-2H-indazol-5-yl)carbamoyl)-6-methylpyridine 1-oxide] | 78.71%
